We go through ten compounds from patent publication US20150175585A1, “FUSED QUINONIC COMPOUNDS” (CENTRO ATLANTICO DEL MEDICAMENTO S.A (CEAMED, S.A.), priority 2012, published 2015).

Like-named read-outs stand apart in the source and are kept apart here. Bounds are passed on as bounds.

One experiment relates to JAK2. Put plainly: JAK2 phosphorylation western blot assay. In kind it is cell-based, human. The conditions noted are these: 10 microM, HEL or K562 cells (table does not say which). As to the method:
(§1) The Human Erythroleukemia cell line HEL and the human Chronic Myeloid Leukemia cell line K562 were cultured in RPM I 1640 medium containing 10% fetal bovine serum (FBS) and 50 U/ml penicillin/50 U/ml streptomycin at 37° C. in a 5% CO2 humidified atmosphere to a density of 300.000 viable cells/mL in presence of WP1066 (positive control of phosphorylation inhibition) (Verstovsek et al., 2008) or CM-363 at concentrations of 1, 5 and 10 μM. Cell culture reagents were all obtained from BioWhittaker® (Lonza, Verniers, Belgium). Cell growth and viability was determined by propidium iodide (fluorescent dye) exclusion method using the Accuchip 4× Counting Kit and the ADAM automatic cell counter (Digital-Bio, NanoEntek, Ic., Washington St, Mass., USA).As a control of unspecific phosphorylation, some cells in each experiment were exposed to vehicle (negative control of phosphorylation inhibition) (0.1% DMSO).
(§2) For total protein extraction, cells were scraped with RIPA 1× lysis buffer (25 mM Tris-HCl pH 7.6, 150 mM NaCl, 1% NP-40, 1% sodium deoxycholate, 0.1% SDS, no. 89900, Thermo Scientific, Rockford, Ill., USA) supplemented with 1× protease and 1× phosphatase inhibitor cocktails (100× Halt™ Protease Inhibitor Cocktail, no. 87786 and 100× Halt Phosphatase Inhibitor Cocktail, no. 78420, both from Thermo Scientific, Rockford, Ill., USA). An aliquot of each extract was preserved for protein quantification by bicinchoninic acid assay (Pierce® BCA Protein Assay Kit, no. 23225, Thermo Scientific, Rockford, Ill., USA).
(§3) Proteins were solubilized in sample buffer containing 0.0625 M Tris-HCl, pH 6.8, 2.3% (wt/vol) SDS, 10% (vol/vol) glycerol, 5% (vol/vol) f3-mercaptoethanol, and 0.001% (wt/vol) bromophenol blue and boiled at 95° C. for 5 min. Equal amounts (50 μg) of each sample were electrophoresed on 8-10% sodium dodecyl sulfate-polyacrylamide gel electrophoresis (SDS-PAGE) and transferred to nitrocellulose membranes (iBlot® Gel Transfer Stacks, Nitrocellulose, no. IB4010-02, Invitrogen, Barcelona, Spain) as described previously (Fernandez, L, et al., Endocrinology, 13, 1815-1824, 1998; B. Guerra et al., J. Neurochem, 91, 99-109, 2004; B. Guerra et al., J. Appl. Physiol., 102, 1786-1792, 2007; B. Guerra et al., J. Appl. Physiol., 111, 715-725, 2011). The nitrocellulose membranes were then removed from the iBlot® Dry GelTransfer Device (no. IB1001EU, Invitrogen, Barcelona, Spain) and placed in a Ponceau S staining solution (0.5% Ponceau S and 1% glacial acetic acid in water) to verify equal loading of protein in the control and treated samples. After the membranes were stained for 5 min, they were rinsed for 2 min and examined. Equal loading of protein was verified, and the membranes were rinsed for an additional 10 min and immunoscreened. Membranes were blocked with 5% blotting grade blocker nonfat dry milk in Tris Buffered Saline with 0.05% Tween 20 (TBST; blotto-blocking buffer) for at least […]) at room temperature. They were washed thrice in TBS with 0.1% Tween 20 (TBST-0.1). Next, the membranes were incubated over night at 4° C. with the appropriate anti-phospho-antibodies (described below) all diluted (1:1000) in 1% bovine serum albumin (BSA)-1% blotto in TBST (BSA-blotto blocking buffer). […] Membranes were stripped of bound antibodies by incubation in stripping buffer (Restore™ Western Blot Stripping Buffer, no. 21059, Thermo Scientific, Rockford, Ill., USA) at room temperature for 30 min with agitation. Membranes were washed for 3×10 min in TBST-0.1, blocked with blotto-blocking buffer for at least 1 h and re-probed with the corresponding anti-total kinase antibodies (described below) all diluted (1:1000) in blotto-blocking buffer. […]

The test system of another experiment is STAT5. In words: STAT5 phosphorylation western blot assay. In kind it is cell-based, human. To be noted: 10 microM, HEL or K562 cells (table does not say which). As to the method:
as §1, §2, §3

The test system of a further experiment is K562 cells. Put plainly: K562-based MTT cell viability assay. Set-up: species or system human. To be noted: 48 h, read-out: Activity (IC50, reduction of cell viability). Here is the method: (§4) Cell viability was assayed by measuring the mitochondrial reduction of the tetrazolium salt 3-(4,5-methyltiazol-2yl)-2,5diphenyl-tetrazolium bromide] (MTT) (Applichen; A2231,0010) (Mosmann T. J Immunol Methods. 1983 16; 65(1-2):55-63; Chuan Y-C et al 2010. Oncogene. 29 (10), 1531-1542. Cells were seeded in 96-well plates in medium supplemented with 10% FBS (Lonza Cat. No: 14-502F), 2 mM L-Glut (Lonza Cat. No: BE17-605E) and 100 U/ml PEST (Lonza Cat. No: DE17-605E) at a cell density of 5000-20000 cells/well. Cells were seeded at a density according to their exponential growth phase. Vehicle (0.05% DMSO) or drug were added to culture medium at the indicated concentrations (10 to 0.01 microM) during 48 h. Then, MTT (0.3 mg/ml) was added to cells following by incubation for 2-4 h at 37° C. in the dark. The medium was then discarded and the formazan precipitate was solubilized by addition of 20% SDS (Sigma; L-5750) in 0.02N HCl (Panreac; 131020.1611) for 12-16 h. The optical density was measured at 595 nm with the iMark Microplate Reader (BioRad, USA). Data was expressed as percent growth above the level in controls and the results in figures were plotted as means±SEM of each test point from 3 replicates.
(§5) Statistical analysis. The concentration of drug that provokes 50% reduction of cell viability (IC50) was determined by using non-linear regression analysis and data were fitted to a log concentration vs normalized response curve in GraphPad software v5 (San Diego, Calif.).

Experiment [1] concerns STAT5 transcription (pSPI-GLE1-luc) in HEK-GHR cells. In words: HEK-GHR STAT5 transcription assay (luciferase reporter, rhGH stimulated). In kind it is cell-based, human. The conditions noted are these: compound 45 minutes before 50 nM rhGH, six hours, read-out: Activity (IC50, reduction of luciferase activity). The text has this:
Plasmids: The full-length GHR was subcloned into pcDNA1/ampicillin (Invitrogen) as described previously (Ross R J, Esposito N, Shen X Y, et al., Mol Endocrinol 1997, 11:265-73). The pSPI-GLE1 (serine protease inhibitor 2.1 GAS-like element 1)-luc reporter construct was generated by subcloning the Stat5-binding element from serine protease inhibitor gene together with a minimal thymidine kinase promoter into the pGL2 plasmid (Promega), which contains the firefly luciferase cDNA (Wood T J, Sliva D, Lobie P E, et al. J Biol Chem 1995, 270:9448-53).
Cell culture: HEK-GHR cell line was maintained in Dulbecco's Modified Eagle Medium (DMEM)/F12 supplemented with 10% fetal bovine serum (FBS) and 50 U/ml penicillin/50 U/ml streptomycin. The cells were maintained in a humidified incubator with 5% CO2 at 37° C. Cell culture reagents were obtained from PAA laboratories. The HEK-GHR cell line is a stable clone generated and kindly donated by Prof. Richard Ross (Clinical Sciences, Northern General Hospital, Sheffield, UK). Briefly, HEK-GHR cell line was generated in HEK 293 cells (human kidney embryonal cell line) by transfection with the calcium phosphate procedure of the GHR plasmid with pcDNA3/Neo (Invitrogen). Selection was made using G418 (400 ug/ml, Sigma) (Maamra M, Finidori J, Von Laue S, et al., J Biol Chem 1999, 274(21):14791-8).
Luciferase reporter assay: Transcription assays were performed in HEK-GHR. The HEK-GHR cells were co-transfected with Stat5 luciferase (pSPI-GLE1-luc) reporter vector together with a plasmid constitutively expressing beta-galactosidase by using Metafectene Pro as described by the manufacturer (Biontex Laboratories GmbH, Munich, Germany). Following transfection, HEK-GHR cells were serum-starved for 20 h. Cells were then treated with vehicle (0.1% DMSO) or the indicated compound for 45 minutes prior to the addition of 50 nM recombinant human Growth Hormone (rhGH) (Norditropin, Novo Nordisk) to the medium. Six hours following rhGH addition, cells were harvested with Passive Lysis Buffer (Promega), and levels of luciferase were measured using Luciferase Assay System as described by the manufacturer (Promega). The Galacto-Light Plus System (Applied Biosystems) was used to measure beta-galactosidase activity.
Statistical analysis. The concentration of drug that provokes 50% reduction of luciferase activity (IC50) was determined by using non-linear regression analysis and data were fitted to a log concentration vs normalized response curve in GraphPad software v5 (San Diego, Calif.).

In a further experiment the test system is HEL cells. Put plainly: HEL-based MTT cell viability assay. Further details: species or system human. To be noted: 48 h, read-out: Activity (IC50, reduction of cell viability). As to the method:
as §4, §5

Turning to `O=C1CCCC2=C1C(c1ccc3c(c1)OCO3)C1=C(N2)C(=O)c2ccccc2C1=O` (stereo not shown) [Compound 18], the “Activity (inhibition of JAK2 phosphorylation)” value in the experiment with JAK2 is “++ (++represents an inhibition at 10 microM > 50%)”. In the experiment with STAT5, the “Activity (inhibition of STAT5 phosphorylation)” value is “+ (+represents an inhibition at 10 microM > 50%)”. In the experiment on K562 cells, the concentration for half-maximal inhibition (IC50) is less than 10000 nM.

Take `O=C1CCCC2=C1C(c1ccc(Br)cc1)C1=C(N2)C(=O)c2ccccc2C1=O` (stereo not shown) [Compound 26, 12-(4-bromophenyl)-3,4-dihydrobenzo[b]acridine 1,6,11(2H,5H,12H)-trione]: the “Activity (inhibition of STAT5 phosphorylation)” value in the experiment with STAT5 was “+ (+represents an inhibition at 10 microM > 50%)”. The IC50 was less than 5000 nM in experiment [1] (Homo sapiens), less than 10000 nM in the experiment with HEL cells (Homo sapiens) and less than 1000 nM with K562 cells (Homo sapiens).

As to `CC1(C)CC(=O)C2=C(C1)OC1=C(C(=O)c3ccccc3C1=O)C2c1ccc2c(c1)OCO2` (stereo not shown) [Compound 16, 12-(benzo[d][1,3]dioxol-5-yl)-3,3-dimethyl-3,4-dihydro-1H-benzo[b]xanthene-1,6,11(2H,12H)-trione], the IC50 in experiment [1] (Homo sapiens) is less than 5000 nM; with HEL cells (Homo sapiens) it was less than 3000 nM; in the experiment with K562 cells (Homo sapiens), less than 3000 nM.

With `CC1(C)CC(=O)C2=C(C1)OC1=C(C(=O)c3ccccc3C1=O)C2c1ccc(C#N)cc1` (stereo not shown) [Compound 3, 4-(3,3-dimethyl-1,6,11-trioxo-2,3,4,6,11,12-hexahydro-1H-benzo[b]xanthen-12-yl)benzonitrile], in the experiment with JAK2, the “Activity (inhibition of JAK2 phosphorylation)” value is “++ (++represents an inhibition at 10 microM > 50%)”. The “Activity (inhibition of STAT5 phosphorylation)” value in the experiment on STAT5 is given as “+++ (+++represents an inhibition at 10 microM > 75%)”. In addition, the IC50 (in experiment [1] (Homo sapiens); in the experiment on HEL cells (Homo sapiens); with K562 cells (Homo sapiens)) was less than 1000 nM throughout.

For the compound `O=C1CCCC2=C1C(c1cccc(Br)c1)C1=C(N2)C(=O)c2ccccc2C1=O` (stereo not shown) [Compound 27], in the experiment on JAK2, the “Activity (inhibition of JAK2 phosphorylation)” value is listed as “+ (+represents an inhibition at 10 microM > 30%)”. Moreover, the 50% inhibitory concentration (IC50) is less than 5000 nM in experiment [1], less than 3000 nM in the experiment with HEL cells and less than 10000 nM in the experiment on K562 cells.

In the case of `N#Cc1ccc(C2C3=C(CCCC3=O)NC3=C2C(=O)c2ccccc2C3=O)cc1` (stereo not shown) [Compound 2, 4-(1,6,11-trioxo-1,2,3,4,5,6,11,12-octahydrobenzo[b]acridin-12-yl)benzonitrile], the IC50 in experiment [1] (Homo sapiens) was less than 1000 nM; in the experiment with HEL cells (Homo sapiens) it was less than 3000 nM; with K562 cells (Homo sapiens), less than 1000 nM.

Take `O=C1CCCC2=C1C(c1ccoc1)C1=C(N2)C(=O)c2ccccc2C1=O` (stereo not shown) [Compound 24]: in the experiment on JAK2, the “Activity (inhibition of JAK2 phosphorylation)” value is “+++ (+++represents an inhibition at 10 microM > 75%)”. For the same compound, in the experiment with STAT5, the “Activity (inhibition of STAT5 phosphorylation)” value is on record as “+ (+represents an inhibition at 10 microM > 50%)”. The figures for the IC50 (in experiment [1]; in the experiment on HEL cells) were less than 5000 nM and less than 3000 nM, respectively.

Take `CC1(C)CC(=O)C2=C(C1)OC1=C(C(=O)c3ccccc3C1=O)C2c1ccco1` (stereo not shown) [Compound 20, 12-(furan-2-yl)-3,3-dimethyl-3,4-dihydro-1H-benzo[b]xanthene-1,6,11(2H,12H)-trione]: in the experiment with JAK2, the “Activity (inhibition of JAK2 phosphorylation)” value is reported as “+++ (+++represents an inhibition at 10 microM > 75%)”. In addition, the “Activity (inhibition of STAT5 phosphorylation)” value with STAT5 is recorded as “++ (++represents an inhibition at 10 microM > 50%)”. Further, the IC50 (in experiment [1] (Homo sapiens); in the experiment on HEL cells (Homo sapiens)) was less than 1000 nM in each case.

With `O=C1CCCC2=C1C(c1ccc(Cl)cc1)C1=C(N2)C(=O)c2ccccc2C1=O` (stereo not shown) [Compound 1, 12-(4-chlorophenyl)-3,4-dihydrobenzo[b]acridine-1,6,11(2H,5H,12H)-trione], the IC50 in experiment [1] (Homo sapiens) is less than 5000 nM; with HEL cells (Homo sapiens) it was less than 3000 nM; with K562 cells (Homo sapiens), less than 10000 nM.

As to `COc1ccc(C2C3=C(CCCC3=O)OC3=C2C(=O)c2ccccc2C3=O)cc1OC` (stereo not shown) [Compound 15], in the experiment on JAK2, the “Activity (inhibition of JAK2 phosphorylation)” value is reported as “++ (++represents an inhibition at 10 microM > 50%)”. In addition, the “Activity (inhibition of STAT5 phosphorylation)” value in the experiment with STAT5 is “++ (++represents an inhibition at 10 microM > 50%)”. For the same compound, the IC50 was less than 10000 nM in experiment [1] and less than 1000 nM with HEL cells.
